Experimental data reported in patent US8987294B2, “Small molecule inhibitors of the α4-paxillin interaction” (The Regents of the University of California, priority 2009, dated 2015).

Assays:
Jurkat T cells [1] = assay: Spreading assay, Jurkat T cells on CS-1; assay type: cell-based; details: 180 minutes after plating on CS-1
Protocol: (§1) Cell spreading was performed as described (11, 34). Briefly, CHO cells or Jurkat cells resuspended in Dulbecco's modified Eagle's medium or RPMI 1640, respectively, containing 0.5% fetal bovine serum and 0.2% BSA were plated on coverslips coated with 3 μg/ml GST-CS-1 in 12 well plates in the presence or absence of the small molecule inhibitor. […] The cell area was measured and analyzed using the ImageJ software. At least three independent experiments were performed and in each experiment at least 30 cells were analyzed.

Jurkat T cells [2] = assay: Cytotoxicity assay (CellTiter 96 Aqueous One Solution); assay type: cell-based; details: concentrations up to 100 μM for 24 h
Protocol: The cytotoxicity effect of compounds on cultivated cells was determined using the CellTiter 96® Aqueous One Solution Cell Proliferation Assay (Promega, Madison, Wis.) according to the manufacturer's guidelines.

C57B1/6 mice = assay: Thioglycollate-induced peritonitis; assay type: in vivo
Protocol: Male C57B1/6 mice 5-6 weeks old were injected intraperitoneally with 1 ml sterile 4% (wt/vol) thioglycollate (Sigma-Aldrich). Mice were injected with 16.5 mg/kg 6-B345TTQ, 6-234TTQ or the equal volume of vehicle only every 8-12 hours. At various time points after injection, mice were sacrificed and subjected to peritoneal lavage with 4 ml PBS containing 5 mM EDTA and 1% BSA. Total leukocytes in lavage samples were enumerated with a hemocytometer. Cells (1×10^5) were attached to glass slides with a Cytospin4 instrument (ThermoSharidon) and stained with modified Wright-Giemsa stain. Differential cell counts were performed on 5 individual fields, each containing 100 cells by light microscopy.

[3] = biological target: T1, interaction of leupaxin with α4-integrin (Homo sapiens, UniProt O60711); assay: ELISA, leupaxin binding to immobilized α4 tail
T1 construct: Biotinylated α4-integrin cytoplasmic tail was coated to the plates; 6xHis (N); biotin acceptor peptide […]; made in house; host or cells: Escherichia coli
T1 sequence (O60711 1-386): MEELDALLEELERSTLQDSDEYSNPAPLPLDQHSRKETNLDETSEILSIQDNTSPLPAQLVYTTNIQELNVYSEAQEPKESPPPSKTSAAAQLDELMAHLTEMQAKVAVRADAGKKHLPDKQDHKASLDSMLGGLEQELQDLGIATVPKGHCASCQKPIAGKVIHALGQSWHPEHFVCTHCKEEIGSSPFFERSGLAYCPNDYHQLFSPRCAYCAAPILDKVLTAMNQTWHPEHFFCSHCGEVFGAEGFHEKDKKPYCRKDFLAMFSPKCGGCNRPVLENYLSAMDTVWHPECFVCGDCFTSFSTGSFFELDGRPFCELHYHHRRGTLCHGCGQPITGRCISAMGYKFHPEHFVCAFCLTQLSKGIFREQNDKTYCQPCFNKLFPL
Protocol: (§2) Thermo Electron High Binding 96 or 384 well plates were coated with 1 μg/ml neutravidin (Pierce) in 0.05M NaHCO3 pH 9.5 over night at 4° C. After blocking with 1% heat inactivated BSA in PBS for 1 hour at room temperature, plates were incubated with 1 μg/ml of recombinant αIIb-tail or α4-tail FAT or Git-1 in 1% BSA in PBS for one hour at room temperature. Plates were washed twice with 0.2% Tween in PBS to remove unbound protein and incubated with 10 μg/ml HA-tagged leupaxin or paxillin in 0.2% Tween/1% BSA in PBS in the presence or absence of small molecule compounds (5 mM DMSO stock solutions). […] Plates were washed twice and bound leupaxin or paxillin was detected by incubating with the first antibody (12CA5 ascites, 1:10,000 in 0.2% Tween/1% BSA in PBS) for 1 hour at room temperature and then with the secondary antibody (HPR-conjugated anti mouse, Biosource, 1:1,000 in 0.2% Tween, 1% BSA, PBS for 1 hour at room temperature. Binding was quantified after addition of ECL solution on a Victor luminescence plate reader. 0% inhibition control was measured with leupaxin and no compound and 100% inhibition control (background) was measured with no leupaxin and no compound. Each well was duplicated and percent inhibition was averaged. (FIG. 1A)
Inhibition of the α4 leupaxin interaction was measured using the above described ELISA assay. Biotinylated α4-integrin cytoplasmic tail was coated to the plates and incubated with increasing concentrations of leupaxin in the presence of different concentrations of inhibitor or no inhibitor. The data were fitted to equations for models of competitive, non-competitive, uncompetitive of mixed inhibition using Graph Pad Prism 5.0 to test which model fits the best.

[4] = biological target: T2, interaction of GIT-1 with leupaxin (Homo sapiens, UniProt O60711); assay: ELISA, leupaxin binding to immobilized Git-1; details: read-out: IC50, inhibition of interaction of GIT-1 with leupaxin
T2 sequence (O60711 1-386): T1 sequence (O60711 1-386)
Protocol: as §2

[5] = test system: CHO wildtype cells that do not express α4; assay: Spreading assay, CHO wildtype cells on fibronectin; assay type: cell-based, Chinese Hamster; details: plated on fibronectin; data not shown
Protocol: as §1, with “containing 0.5% fetal bovine serum and 0.2% BSA were plated on coverslips coated with 3 μg/ml GST-CS-1 in 12 well plates in the” left out

[6] = test system: Jurkat T cells expressing a mutated α4-integrin (α4(Y991A)); assay: Modified Boyden chamber migration, JB4-Y991A cells; assay type: cell-based
Protocol: (§3) Cell migration was assayed in a modified Boyden chamber assay system as described previously (8). For Jurkat T cell migration, transwell (Costar) polycarbonate membranes containing 3-μm pores were coated with 10 μg/ml CS-1, an α4 integrin binding fragment of fibronectin or 20 μg/ml ICAM in 0.1M NaHCO3, pH 8.0 overnight at 4° C. Membranes were blocked with 2% BSA in PBS for 30 minutes at room temperature. 2.0×10^5 Jurkat T cells in RPMI 1640 with 10% fetal bovine serum were added to the top chamber. Stromal-derived factor-1α (SDF-1α, R&D Systems, Minneapolis, Minn.) at a final concentration of 15 ng/ml in RPMI 1640 with 10% fetal bovine serum was added to the bottom chamber. Cells were allowed to migrate for 5 hours at 37° C. Cells in the bottom chamber were enumerated with a hemacytometer. Small molecule inhibitors were added to the top and bottom chamber in the indicated concentrations.

CHO-S998A cells = assay: Spreading assay, CHO-S998A cells on CS-1; assay type: cell-based, Chinese Hamster; details: CS-1 coated cover slips, 45 minutes
Protocol: as §1

THP-1 cells = assay: Modified Boyden chamber migration, THP-1 cells on CS-1; assay type: cell-based; details: Homo sapiens, 3 hours, read-out: inhibition of monocyte migration
Protocol: as §3
THP-1 cells were cultured in RPMI1640 containing 0.1% fetal bovine serum for 16 hours before 1×10^6 cells were added to the top chamber of transwells with CS1-coated membranes that contained 5-μm pores and allowed to migrate for 3 hours towards RPMI containing 0.1% fetal bovine serum.

[7] = biological target: T3, interaction of paxillin with α4-integrin (Homo sapiens, UniProt P49023); assay: ELISA, paxillin binding to immobilized α4 tail; details: 10 μg/ml paxillin; read-out: IC50, inhibition of paxillin binding to α4-integrin
T3 construct: 6xHis (N); biotin acceptor peptide […]; made in house; host or cells: Escherichia coli
T3 sequence (P49023 whole entry): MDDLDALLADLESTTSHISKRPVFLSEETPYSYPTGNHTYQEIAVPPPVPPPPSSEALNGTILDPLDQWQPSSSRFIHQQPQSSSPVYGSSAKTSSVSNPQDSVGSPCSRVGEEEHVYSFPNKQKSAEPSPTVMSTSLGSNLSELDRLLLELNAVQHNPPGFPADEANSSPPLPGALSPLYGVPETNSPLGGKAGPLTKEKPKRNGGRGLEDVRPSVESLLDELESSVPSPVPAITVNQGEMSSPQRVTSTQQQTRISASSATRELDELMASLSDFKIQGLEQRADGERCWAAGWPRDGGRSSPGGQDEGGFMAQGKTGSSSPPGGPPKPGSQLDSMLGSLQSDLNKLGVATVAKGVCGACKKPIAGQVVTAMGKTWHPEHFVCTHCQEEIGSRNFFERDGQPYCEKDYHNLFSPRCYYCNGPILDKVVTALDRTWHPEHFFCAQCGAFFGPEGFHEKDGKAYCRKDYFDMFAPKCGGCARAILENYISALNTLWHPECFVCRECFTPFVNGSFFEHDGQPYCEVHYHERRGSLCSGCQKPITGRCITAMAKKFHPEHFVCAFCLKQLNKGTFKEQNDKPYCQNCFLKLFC
Protocol: as §2

Jurkat T cells [8] = assay: Modified Boyden chamber migration, Jurkat T cells on CS-1; assay type: cell-based; details: Homo sapiens, 5 hours towards SDF-1α, read-out: inhibition of T-cell migration
Protocol: as §3

[9] = biological target: T4, interaction of FAT with paxillin (Homo sapiens, UniProt P49023); assay: ELISA, paxillin binding to immobilized FAT
T4 construct: Recombinant 6×His-FAT, the focal adhesion targeting domain of pp125^FAK; 6xHis (N); made in house; host or cells: E. coli BL21(DE3)pLysS
T4 sequence (P49023 whole entry, the tested form may be a part): as the sequence (P49023 whole entry) above
Protocol: as §2

[10] = biological target: interaction of GIT-1 with paxillin (Homo sapiens, UniProt P49023); assay: ELISA, paxillin binding to immobilized Git-1; details: read-out: IC50, inhibition of interaction of GIT-1 with paxillin
Sequence of interaction of GIT-1 with paxillin (P49023 whole entry): as above
Protocol: as §2

Jurkat T cells [11] = assay: Modified Boyden chamber migration, Jurkat T cells on ICAM-1 (αLβ2-mediated); assay type: cell-based
Protocol: as §3

[12] = biological target: T5, native paxillin and α4-integrin (Homo sapiens, UniProt P49023); assay: Coimmunoprecipitation of α4 with paxillin from Jurkat T cells; assay type: binding; details: anti-biotin blot
T5 construct: endogenous in cells; host or cells: Jurkat T cells
T5 sequence (P49023 whole entry): as above
Protocol: For endogenous Coimmunoprecipitation experiments, Jurkat T-cells were washed in ice-cold PBS and incubated in 1.6 mM Sulfo-NHS-Biotin (Pierce, Chemical Co.) for 30 minutes at room temperature. Excess biotin was quenched and washed from the cells with PBS/Glycine. Cell lysates were then prepared with lysis buffer containing 20 mM Tris, pH 7.4, 150 mM NaCl, 10 mM EDTA, 1% Triton X-100, 0.05% Tween 20 and a protease inhibitor cocktail (Roche Diagnostics Corp.). Lysate containing 200 μg total cell protein was immunoprecipitated using 2 μg rabbit anti paxillin (RB-4358). Immunoprecipitated proteins were separated by SDS-PAGE (8% Bis-Tris, denaturating and reducing) and transferred to nitrocellulose membranes. Precipitated, biotinylated proteins were detected using HRP-Streptavidin (1:10,000).

[13] = biological target: T6, interaction of leupaxin with the focal adhesion targeting sequence of pp125^FAK (FAT) (Homo sapiens, UniProt O60711); assay: ELISA, leupaxin binding to immobilized FAT; details: concentrations up to 100 μM
T6 construct: Recombinant 6×His-FAT, the focal adhesion targeting domain of pp125^FAK; 6xHis (N); made in house; host or cells: E. coli BL21(DE3)pLysS
T6 sequence (O60711 1-386): T1 sequence (O60711 1-386)
Protocol: as §2

## COc1cc(C2CC(=O)Nc3c2cc(Br)c2ccccc32)cc(OC)c1OC (centres unmarked) [6-B345TTQ]
Jurkat T cells [1]
  spreading of Jurkat T cells: dose dependent increase
Jurkat T cells [2]
  cytotoxicity (cell viability): not cytotoxic
C57B1/6 mice; 16.5 mg/kg every 8-12 hours i.p., 48 hours after thioglycollate
  reduction of infiltration of peritoneal monocytes/macrophages: 50%
C57B1/6 mice; 16.5 mg/kg every 8-12 hours, 48 hours and 72 hours after thioglycollate
  recruitment of lymphocytes to the peritoneum: reduction was not statistically significant
C57B1/6 mice; 16.5 mg/kg every 8-12 hours, vs vehicle
  recruitment of neutrophils: no difference
[3]; 10 μg/ml leupaxin, read-out: IC50, inhibition of leupaxin binding to α4-integrin
  IC50: 18 µM
[3]; increasing leupaxin, various inhibitor concentrations, model fit Graph Pad Prism 5.0
  nature of inhibition of the α4 leupaxin interaction: competitive inhibitor
[3]; mixed model fit
  α-value of mixed model of inhibition: ~2.958×10^12
[4]
  IC50: 25 µM
[5]
  spreading of CHO wildtype cells: not increased
[6]
  residual α4-dependent migration of α4(Y991A) Jurkat T cells: not further decreased
CHO-S998A cells
  spreading of CHO-S998A cells: increased the spreading of CHO-S998A cells to a level comparable with CHO-S998D cells
THP-1 cells
  inhibition at 50 µM: 52.6%
[7]
  IC50: 10.8 µM
Jurkat T cells [8]
  inhibition at 50 µM: 56.4%
[9]
  inhibition of the interaction of FAT with paxillin: did inhibit
[10]
  IC50: 2.4 µM
Jurkat T cells [11]
  effect on αLβ2-mediated Jurkat T cell migration on ICAM-1: not significantly reduced
[12]
  amount of α4 co-immunoprecipitated with paxillin: decreased with increasing concentrations
[13]
  effect on the binding of FAT to leupaxin: no effect
